Patent US5571789A (Haemopep Pharma GmbH, priority 1992, dated 1996)
“Also recorded” adds a separate entry of the source.

Key:
[1] = tested on: broncho-constriction caused by inhalation of acetylcholin; assay: Forced expiration (spirography, flow-volume curve) at the end of inhalatory acetylcholin provocation in rats under i.v. infusion; format: in vivo, wistar rats
Protocol: (§1) A total of 33 female 12 week wistar rats having body weights of 300 g served as test animals. The design of the study was that of a simple blind approach. On each of the experiment days, animals of the control group and of the verum group were measured.
Employing a test animal body plethysmograph allowed for continuous measurement of the respiration volume (VT), respiration frequency (f), respiration minute volume (MV), resistance of the lung (RL), dynamic compliance (Cdyn), respiration flow (F) and transpulmonary pressure (PTP) of a narcotized, intubated and spontaneously breathing rat. Circulation monitoring was accomplished by EKG recording with evaluation of the heart frequency (HR).
After steady state conditions were attained the initial values of spontaneous respiration were measured first. […] In each case evaluations of the continuously determined spontaneous parameters were made 5 minutes after the beginning of the infusion before an inhalatory acetylcholin (ACh) provocation was made (basic values before Ach provocation).
By means of an injectomar device the test animals were infused 0.5 ml of solution continuously over a total of 10 minutes.
(§2) 5 minutes after the beginning of the infusion each rat was provoked by inhalation of a defined amount of an ACh aerosol. Evaluation of the spontaneous respiration parameters for each animal was performed after a total inhalation volume of 600 ml (values at the end of ACh provocation).
To complete the experiments, a forced expiration was performed on each animal in hyperventilation induced apnea. Flow-volume and flow-time (spirography) relations were recorded. The flow-volume curve allows for the evaluation of peak expiratory flow (=PEF), maximum mid-expiratory flow (=MMEF), and flow at 75, 50, 25, and 10% of the forced vital capacity (e.g. FEF 75). Spirography of rats primarily yields the forced vital capacity (FVC) and the expired volume after 0.05, 0.10, 0.20 and 0.40 seconds as an absolute value in ml (e.g. FEV 0.05) or in percent of FVC (e.g. FEV 0.05%).

[2] = tested on: bronchial asthma (lung function parameters); assay: Lung function in patients with bronchial asthma under 40 minute i.v. infusion; format: in vivo, human; settings: for FEV1.0 versus pre values and 20 ng/kg/min group: after 10 minutes of infusion; for PEF, MEF75, MEF50 and MEF25: during infusion; for VCmax versus pre values: during infusion and until 10 minutes thereafter
Excerpt: The anamnesis gave no evidence for an exacerbation of the disease in the last 8 weeks. No nicotine abuse was known from any of the patients. Additional inclusion criteria were defined by an expiratory one-second-capacity (FEV1.0) of 40 to 70% of the maximum vital capacity (VCmax) before administration of a broncho-spasmolytic agent, an effect of a β2 -sympathomimetic on FEV1.0 of ≥15%, no alteration of the maintenance antiobstructive treatment and no administration of oral corticoids in the last 4 weeks before the beginning of the study. Within 8 hours before the beginning of the examinations no inhalatory application of a β2 -sympathomimetic must have occurred anymore.

[3] = cited from earlier work
[4] = tested on: spontaneous respiration parameters (F, PTP, VT, Cdyn, RL, f, MV); assay: Spontaneous respiration parameters by body plethysmograph in narcotized rats; format: in vivo, wistar rats; settings: for Effect of infusion on spontaneous respiration parameters after ACh provocation: after total inhalation of 600 ml ACh, groups B-D versus control
Protocol: as §1
After steady state conditions were attained the initial values of spontaneous respiration were measured first. Thereafter, a randomized infusion of placebo, urodilatin, or ANP was started. In each case evaluations of the continuously determined spontaneous parameters were made 5 minutes after the beginning of the infusion before an inhalatory acetylcholin (ACh) provocation was made (basic values before Ach provocation).
as §2

[5] = group B, 40 ng/kg/min i.v. infusion, end of ACh provocation
[6] = group B, 40 ng/kg/min, 5 minutes after beginning of infusion, before ACh

For urodilatin, the “Protective effect at 40 ng/kg/min versus ANP in a twofold higher dose on a molar basis” value ([1]; 40 ng/kg/min versus 70.305 ng/kg/min ANP) was “clearly more effective than ANP; also recorded: more obvious protective effect than ANP”, the “Protection from broncho-constriction (improved forced expiration)” value ([1]; animal experiments, parenteral administration) was “obvious protection” and the “Effect compared with equimolar doses of ANP” value ([1]; broncho-constriction by inhaled acetylcholin, parenteral administration) was “more than two times greater”. For the same compound, the “FEV 0.1% (expired volume after 0.1 seconds based on FVC) versus control group A” value [1, 5] was “significant improvement”, the “PEF, MMEF, FEF 75, FEF 50 and FEF 25 of the forced expiratory flow-volume curve versus control group A” value [1, 5] was “clear improvement” and the “PEF, MMEF, FEF 75, FEF 50 and FEF 25 of the forced expiratory flow-volume curve versus control group A” value ([1]; group C, 80 ng/kg/min i.v. infusion, end of ACh provocation) was “clear improvement”. For the same compound, the “Effectiveness and duration of action versus ANP (flow-volume curves, FIGS. 1 to 3)” value ([1]; groups B and C (40, 80 ng/kg/min) versus group D (70.3 ng/kg/min ANP)) was “more effective and acts for a longer period of time”, the “Other FEV and FEV % values, comparison of groups A-D” value ([1]; i.v. infusion 40 or 80 ng/kg/min, end of ACh provocation) was “not significantly distinct” and the “Effect on the ACh induced changes of the parameters of forced expiration relative to control group A” value ([1]; infusion of 40 and 80 ng/kg/min) was “clearly protective effects”. The “FEV1.0 versus pre values” ([2]; 20 ng/kg/min, any time during or after the infusion) was “did not show any significant effect”, the Flow-volume parameters ([2]; 20 ng/kg/min, p<0.05 after 10 and 30 minutes of infusion) was “increase of the MEF75 measurement value alone” and the “FEV1.0 versus initial values 30 minutes after completion of the infusion” value ([2]; 40 ng/kg/min) was “still significantly different from the initial values”. For the same compound, the “Maxima of PEF, MEF75, MEF50, MEF25 under infusion versus results after Salbutamol inhalation” value ([2]; 40 ng/kg/min) was “not significantly different from the measurement results after Salbutamol inhalation, except for MEF50”, the “Time of maximum FEV1.0 values” ([2]; 40 ng/kg/min infusion) was 30 min and the “FEV1.0 versus pre values and 20 ng/kg/min group” value ([2]; 40 ng/kg/min) was “significant increase”. The “PEF, MEF75, MEF50 and MEF25” value ([2]; 40 ng/kg/min) was “increased during the infusion”, the “VCmax versus pre values” ([2]; 40 ng/kg/min) was “significant increase” and the “Maxima of PEF, MEF75, MEF50, MEF25 under infusion versus results after Salbutamol inhalation” value ([2]; 60 ng/kg/min) was “not significantly different”. The “Maximum FEV1.0 effect versus values after inhalation of Salbutamol” value ([2]; 60 ng/kg/min) was “no longer significantly different”, the “Time of maximum effect on FEV1.0” value ([2]; 60 ng/kg/min infusion) was 20 min and the “FEV1.0 versus pre values and 20 ng/kg/min group” value ([2]; 60 ng/kg/min) was “significant increase”. For the same compound, the “PEF, MEF75, MEF50 and MEF25” value ([2]; 60 ng/kg/min) was “increased during the infusion”, the “VCmax versus pre values” ([2]; 60 ng/kg/min) was “significant increase” and the “VCmax maxima versus results after Salbutamol inhalation” value ([2]; 40 and 60 ng/kg/min) was “did not show any significant differences”. The “MEF50, difference between 40 and 60 ng/kg/min” value ([2]; after 20 minutes of infusion) was “significant difference”, the Broncho-dilatation ([2]; intravenous infusion of 40 and 60 ng/kg/min over 40 minutes, clinically stable bronchial asthma) was “did not result in a significant broncho-dilatation” and the “Glomerular filtration rate, excretion of water, sodium and chloride” value ([3]; intravenous application) was “increase the glomerular filtration rate, the excretion of water, sodium and chloride”. The “Effect of infusion on spontaneous respiration parameters after ACh provocation” value [4] was “without a significant effect”, the “Cdyn versus initial values” [4, 6] was “small, significant decrease” and the “PTP and RL versus initial values” [4, 6] was “slight, significant increase”. The “Respiration frequency versus initial values” ([4]; group C, 80 ng/kg/min, 5 minutes after beginning of infusion, before ACh) was “slight, significant decrease”.
In the case of `CC[C@H](C)[C@@H]1NC(=O)[C@H](CCCNC(=N)N)NC(=O)[C@H](CC(=O)O)NC(=O)[C@H](CCSC)NC(=O)[C@H](CCCNC(=N)N)NC(=O)CNC(=O)CNC(=O)[C@H](Cc2ccccc2)NC(=O)[C@@H](NC(=O)[C@H](CO)NC(=O)[C@H](CO)NC(=O)[C@H](CCCNC(=N)N)NC(=O)[C@H](CCCNC(=N)N)NC(=O)[C@H](CC(C)C)NC(=O)[C@@H](N)CO)CSSC[C@@H](C(=O)N[C@@H](CC(N)=O)C(=O)N[C@@H](CO)C(=O)N[C@@H](Cc2ccccc2)C(=O)N[C@@H](CCCNC(=N)N)C(=O)N[C@@H](Cc2ccc(O)cc2)C(=O)O)NC(=O)CNC(=O)[C@H](CC(C)C)NC(=O)CNC(=O)[C@H](CO)NC(=O)[C@H](CCC(N)=O)NC(=O)[C@H](C)NC(=O)CNC1=O` [ANP, atrial natriuretic peptide, reference compound], the “Effect on the ACh induced changes of the parameters of forced expiration” value ([1]; 70.305 ng/kg/min, equimolar with 80 ng/kg/min urodilatin) is given as “less clearly seen”, the “Flow-volume curve parameters versus control group A” value ([1]; group D, 70.305 ng/kg/min i.v. infusion (equimolar to group C), end of ACh provocation) is given as “significant increase only of PEF and FEF 75” and the Hypotensive effect ([3]; in vivo, iv) is given as “hypotensive effect observed”. For the same compound, the “Effect of infusion on spontaneous respiration parameters after ACh provocation” value [4] was “without a significant effect”.
In the case of `CC(C)(C)NCC(O)c1ccc(O)c(CO)c1` (stereo not shown) [Salbutamol, reference compound], the FEV1.0 ([2]; 1.25 mg Salbutamol inhaled, all three groups) is reported as “significant increase in FEV1.0” and the “Flow-volume parameters (PEF, MEF75, MEF50, MEF25)” value ([2]; Salbutamol inhalation, all dosage groups) is reported as “significant effect”.
